This note sets out measurements from patent US20230255202A1, “ANTIMICROBIAL COMPOSITION” (The Procter & Gamble Company, priority 2022, published 2023).

The test system of one series is Gram Negative. Put plainly: Surface Antimicrobial Kill Testing Method, activity normalized to triclosan internal standard. The following applies: for Referenced Microbial Activity: Table 15; for Referenced Microbial Activity / Negative Referenced Microbial Activity / Gram Negative Referenced Microbial Activity: 0.5 wt % compound; for Referenced Microbial Activity / Negative Referenced Microbial Activity: 0.1M Acetic acid buffer pH 4.5; for Negative Referenced Microbial Activity: Table 16; for antimicrobial benefit (in words): Table 16 nonionic formulation: DEGBE, EcoSurf EH9; for Gram Negative Referenced Microbial Activity: 5 wt % DPGME; for antimicrobial efficacy (in words): Table 17. The format is cell-based. As for the experimental part:
Inoculum is prepared by streaking microorganism onto a Tryptic Soy Agar (TSA) plate and incubating for 24 h at 33° C. Plated bacteria is resuspended in saline until the transmittance percentage falls within the accepted range for ˜10^8 cfu/mL. For K. pneumonia (Kp) and P. aeruginosa (Pa), this is 31.00-33.00% T. For S. aureus (Sa) this is 23.00-25.00% T. A 10× concentration is made by spinning down the prepared inoculum, removing the supernatant saline from the bacterial pellet, then resuspending the pellet in 1/10 of the original volume of saline. The final inoculum is prepared with 5% of “soil” in the form of Fetal Bovine Serum (FBS).
A 18×18 mm sterile glass coverslip is placed into an appropriate container (e.g. petri dish). 20 μL of prepared inoculum is added to the glass coverslip. Inoculum is then air-dried for 30 minutes in a 36° C. incubator. After drying, 40 μL of test sample is added on top of the dried inoculum. This is incubated at room temperature for the desired contact time. 5 mL of neutralizing media (Modified Letheen Broth+Tween+Lecithin (MLBTL)) is added to the coverslip and shaken on an orbital shaker for 5 minutes to ensure proper neutralization and extraction. Viability is then assessed of the neutralized and extracted sample by traditional/alternative microbiological techniques.
The normalized antimicrobial activity reported in the performance examples below was generated from detection time data obtained as described in the Surface Antimicrobial Kill Test Method. To account for day-to-day variability an internal standard was tested with each series. The internal standard was a composition of 0.25 wt % Triclosan, Sigma Aldrich (St. Louis, Mo., USA; CAS #3380-34-5, 97.0-103.0% (active substance, GC)), 50 wt % DMSO, and 49.75 wt % H2O, with a final solution pH of 7.7. Normalized activity is reported following the equation 1 below.
Normalized Activity=(αΔDT−βΔDT)/(γΔDT−βΔDT) equation 1.
where, αΔDT is the average detection time of the antimicrobial compound, and γΔDT is the average detection time of the reference triclosan internal standard, and βΔDT is the average detection time of the background unperturbed bacteria.
Modified amino acids of the present disclosure were tested as aqueous solutions in the Surface Antimicrobial Kill Testing Method above. To prepare test solutions modified amino acids were first dissolved in the appropriate solvent. Second the selected surfactant is added to the mixture. After vortex (1 min, Vortex-2 Genie, vortex speed 8) mixing, the samples were then diluted with […] of reverse osmosis water (RO water, Millipore Direct-Q™, pH 6). The aqueous solution was then vortexed (1 min, Vortex-2 Genie, vortex speed 8), to which the second ½ portion of water is added. The pH of the solution was then adjusted to the target pH using either 1N HCl, Glacial Acetic Acid, or 1N NaOH. The final solution was then vortexed (1 min, Vortex-2 Genie, vortex speed 8). An example batch sheet is provided below in Table 1.
In Performance Examples 1-4 below, formulations comprising solvent, surfactant, and antimicrobial agents according to the present disclosure (e.g., based on modified amino acid esters), are evaluated via microbial surface kill tests according to the Surface Antimicrobial Kill Testing Method provided above. After treatment, microbial growth is referenced and reported to a triclosan sample and unaltered microbes according to the Normalization of Antimicrobial Activity provided above.

Series [1] is described as follows: Stability of the isolated modified amino acid ester by 1H NMR. The format is physicochemical. The following applies: isolated solid or fluid.
Where [2] appears, read: DEGBE (5 wt %), EcoSurf EH9 1 wt %.

On to `CCCCCCCCCCCCCCCCCCOC(=O)[C@@H](N)C(C)C` [Synthetic Example 7], for which the “Referenced Microbial Activity” value in the series on Gram Negative (setting [2]) is 0.9; in the series on Gram Negative (DMSO (50 wt %), EcoSurf EH6 1 wt %), 0.6. In addition, the “stability by 1H NMR” value in series [1] is listed as “stable for several months”.
For the molecule `CCOC(=O)C(N)C(C)C` (stereo not shown) [Comparative Example C1, reference compound], the “Referenced Microbial Activity” value with Gram Negative (setting [2]) was 0.5.
Consider `CCCCCCCCCCCCOC(=O)[C@@H](N)Cc1ccccc1` [Synthetic Example 10], for which the “Negative Referenced Microbial Activity” value with Gram Negative (setting [2]) is reported as 0.1. For the same molecule, the “antimicrobial benefit (in words)” value in the series on Gram Negative is on record as “little surface activity”. Moreover, the “stability by 1H NMR” value in series [1] is given as “stable for several months”.
`CCOC(=O)[C@@H](N)Cc1ccccc1` [Comparative Example C2, phenylalanine ethyl ester, reference compound]: the “Negative Referenced Microbial Activity” value with Gram Negative (setting [2]) is listed as 0.4. The “antimicrobial benefit (in words)” value in the series on Gram Negative is listed as “little antimicrobial benefit”.
Regarding `CCCCCCCCOC(=O)[C@@H](N)C(C)C` [Synthetic Example 4], the “Gram Negative Referenced Microbial Activity” value with Gram Negative (CTAC 1 wt %, pH 4.5) is 3.5; with Gram Negative (Ecosurf EH6 1 wt %, pH 4.5), 3.5; with Gram Negative (Ecosurf EH6 1 wt %, pH 8.5), 0.7; in the series with Gram Negative (Miranol Ultra 32 1 wt %, pH 4.5) it was 3.5; in the series with Gram Negative (Plantaren 2000 1 wt %, pH 4.5) it was 3.5; in the series on Gram Negative (SLS (29%) 1 wt %, pH 4.5) it was 0.4. Further, the “Gram Negative Referenced Microbial Activity” value in the series on Gram Negative (SLS (29%) 1 wt %, pH 8.5) is listed as 0.1; with Gram Negative (Surfonic L 24-9 1 wt %, pH 2), 2.5; in the series on Gram Negative (Surfonic L 24-9 1 wt %, pH 4.5) it was 3.5; in the series on Gram Negative (Surfonic L24-9 1 wt %, pH 7), 3.5; in the series with Gram Negative (Surfonic L24-9 1 wt %, pH 8.5) it was 0.2; in the series with Gram Negative (Tween 80 1 wt %, pH 4.5), 3.5. Moreover, in the series on Gram Negative (no surfactant, pH 4.5, solution heated to 50 C. prior to testing), the “Gram Negative Referenced Microbial Activity” value is 1.6. The “Referenced Microbial Activity” value in the series on Gram Negative (DEGBE (5 wt %), EcoSurf EH6 1 wt %) was 3.7; with Gram Negative (setting [2]), 1.6. In addition, the “antimicrobial activity (in words)” value with Gram Negative (Table 15 experiment, modified valine amino acids) is recorded as “highest activity”. Moreover, the “antimicrobial efficacy (in words)” value is reported as “improved antimicrobial efficacy” in the series on Gram Negative (from pH 2 to about pH 7) and “did not provide a benefit” in the series with Gram Negative (pH range greater than 7). In series [1], the “stability by 1H NMR” value was “stable for several months”.
`CCCCCCCCCCCCCCCCOC(=O)[C@@H](N)C(C)C` [Synthetic Example 6]: in the series on Gram Negative (setting [2]), the “Referenced Microbial Activity” value is recorded as 0.6. Also, in series [1], the “stability by 1H NMR” value is given as “stable for several months”.
As to `N[C@@H](Cc1ccccc1)C(=O)OCc1ccccc1` [Synthetic Example 8], the “Negative Referenced Microbial Activity” value in the series with Gram Negative (setting [2]) is listed as 4.6. In addition, the “stability by 1H NMR” value in series [1] is “stable for several months”.
Regarding `CCCCCCOC(=O)[C@@H](N)C(C)C` [Synthetic Example 3], the “Referenced Microbial Activity” value in the series on Gram Negative (setting [2]) worked out at 2.8. For the same molecule, the “stability by 1H NMR” value in series [1] is recorded as “stable for several months”.
